Consider 2 compounds from patent publication US20050176691A1, “Combination therapy for the treatment of estrogen-sensitive disease” (priority 2000, published 2005).

Read-outs that look alike come from different tables or passages of the source.

The conditions of series [1]: during combination therapy with tamoxifen; persisted during months; cited from earlier work.
Series [2] in a line: Pharmacokinetic profile. In kind it is in vivo.
The nature of series [3]: Absorption characteristics. The following applies: in vivo.
Series [4] deals with plasma protein. The series is described as follows: Distribution: plasma protein binding. Format: in vitro ADME.
A short description of series [5]: Excretion characteristics. The following applies: in vivo.
The test system of series [6] is primary metabolizing enzyme(s). Put plainly: Metabolism characteristics. In kind it is in vitro ADME.
Series [7] can be described thus: Other effects on ADME or PK (patient factors). Conditions: in vivo.
In series [8] the test system is estrogen receptor / enzyme (primary endocrine mechanism). Put plainly: Endocrine effect.

Regarding `N#Cc1ccc(C(c2ccc(C#N)cc2)n2cncn2)cc1` [letrozole, 4,4′-(1H-1,2,4-triazol-1-ylmethylene)bis-benzonitrile], in series [1], the “mean reduction of plasma levels of letrozole vs single agent letrozole” value is listed as 37%.

As usually defined, the Tmax is the time from dosing to the highest level. For orientation: fraction unbound means the share of the substance not bound to proteins or other matrix. The low end stands for little free substance, the high end for much free substance. Take `CN(C)CCOc1ccc(/C(=C(/CCCl)c2ccccc2)c2ccccc2)cc1` [Toremifene, (Z)-2-[4-(4-chloro-1,2-diphenyl-1-butenyl)phenoxy]-N,N-dimethylethanamine]: the “overall time to steady state” value in series [2] (in vivo) is recorded as 4-6 weeks. Moreover, the half-life in series [2] (in vivo, read-out: distribution t1/2 (time) (converted)) is 4 h. The half-life in series [2] (in vivo, read-out: elimination t1/2 (time) (converted)) was 120 h. For the same compound, in series [2] (in vivo, read-out: total clearance (volume/unit time) (converted)), the clearance was 83.3 mL/min. Besides, in series [2] (plasma, oral), the time of peak concentration (Tmax) was 3 h. In addition, in series [3], the “Absorption: influenced by food” value is “no” and the “Absorption: route” value is recorded as “oral”. Besides, the “principal plasma binding protein(s)” value in series [4] is “albumin”. Besides, in series [4] (plasma), the unbound share (fraction unbound) was < 0.005. In series [5], the enterohepatic circulation result is on record as “yes” and the “primary route of elimination” value was “fecal”. Also, the enterohepatic circulation entry in series [5] (listed as toremifene) is given as “subject to enterohepatic circulation”. In series [6], the “induction of primary metabolizing enzyme” value is recorded as “no”, the “plasma levels affected by known inducers of cytochrome p-450 enzyme system” value is “yes”, the “primary enzyme(s) of metabolism” value was “CYP3A4” and the primary metabolite active result is given as “yes”. For the same compound, in series [6], the significant pre-systemic metabolism result is on record as “no”. In series [7], the “effect of race of patient on ADME or PK” value is on record as “unexpected” and the “effect of sex of patient on ADME or PK” value is on record as “no known effect”. In series [8], the “direct inhibition of primary mechanism by combination drug” value was “no” and the “feedback stimulation on combination drug's primary mechanism” value was “yes”.
